Reference: the NIST ThermoML archive (doi:10.1021/je7000683)

Experiments:
[1] = for vapor or sublimation pressure: Liquid, Calculated from knudsen effusion weight loss
[2] = Molar enthalpy of transition or fusion; details: Crystal; Adiabatic calorimetry
[3] = molar heat capacity at constant pressure; details: 101.33 kPa, Small (less than 1 g) adiabatic calorimetry
[4] = activity coefficient (dimensionless); of the first substance listed, at infinite dilution; xn = mol fraction of the nth substance listed; details: Liquid, Chromatography, x1 = 0

CCCCCC[n+]1ccn(C)c1.O=S(=O)([N-]S(=O)(=O)C(F)(F)F)C(F)(F)F
Details | Normal melting temperature [°C]
[1], Crystal, visual observation | -1

O=C1CCCCCN1 [1-aza-2-cycloheptanone]
Details | Molar enthalpy of transition or fusion [kcal/mol]
[2] | 3.862

Details | Triple point temperature [K] | molar heat capacity at constant pressure [J/K/mol]
[1], Crystal, Adiabatic calorimetry | 342.22 | –
[3], 316 K, Crystal | – | 168
[3], 319 K, Crystal | – | 169.4
[3], 322 K, Crystal | – | 171.1
[3], 323 K, Liquid | – | 232.3
[3], 325 K, Crystal | – | 173
[3], 326 K, Liquid | – | 233.8
[3], 328 K, Crystal | – | 175.1
[3], 329 K, Liquid | – | 235.3
[3], 331 K, Crystal | – | 177.5
[3], 332 K, Liquid | – | 236.7
[3], 334 K, Crystal | – | 180.1
[3], 335 K, Crystal | – | 181
[3], 335 K, Liquid | – | 238.2
[3], 338 K, Liquid | – | 239.7
[3], 341 K, Liquid | – | 241.2
[3], 344 K, Liquid | – | 242.7
[3], 347 K, Liquid | – | 244.2
[3], 350 K, Liquid | – | 245.7
[3], 353 K, Liquid | – | 247.1
[3], 356 K, Liquid | – | 248.6
[3], 359 K, Liquid | – | 250.1
[3], 362 K, Liquid | – | 251.6
[3], 365 K, Liquid | – | 253.1
[3], 368 K, Liquid | – | 254.6

[1]
Details | vapor or sublimation pressure [kPa]
315.3 K | 0.00286
320.3 K | 0.00442
331.9 K | 0.01144

O=C1CCCCCN1 [1-aza-2-cycloheptanone] + CCCCCC[n+]1ccn(C)c1.O=S(=O)([N-]S(=O)(=O)C(F)(F)F)C(F)(F)F
Details | activity coefficient
[4], 427.5 K | 0.49

ON=C1CCCCC1 [cyclohexanone oxime] + CCCCCC[n+]1ccn(C)c1.O=S(=O)([N-]S(=O)(=O)C(F)(F)F)C(F)(F)F
[4]
Details | activity coefficient
375.4 K | 2.41
386 K | 2.22
396.5 K | 2.03
407 K | 1.84
417.1 K | 1.67
417.6 K | 1.61
427.5 K | 1.51
438 K | 1.28
